Data: ChEMBL document CHEMBL1201862, “PubChem BioAssay data set” (2004)
Activity calls are given as the source filed them.

Tests used:
[1] = biological target: Neurotensin receptor type 1 (Homo sapiens, UniProt P30989); format: functional;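 also: Image-based confirmatory dose-response assay measuring agonist activity at NTR1; NTR1-expressing U2OS osteosarcoma cells imaged for beta-arrestin GFP spot formation; agonist potency where compounds increase beta-arrestin recruitment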
[2] = inhibitors of intracellular T. cruzi replication, confirmation, NIH3T3 host cells, beta-gal luminescence (AID 2044); format: functional, cell-based;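 also: intracellular parasites grown in NIH/3T3 mouse fibroblasts as host cells; luminescent beta-galactosidase reporter signal from transgenic T. cruzi replicating inside host cells; inhibitors lower the luminescence signal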
[3] = cytotoxicity toward NIH3T3 fibroblasts, dose response, counter-screen, cell-based, ATP luminescence, mouse fibroblasts (AID 2010); format: functional;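 also: cells exposed to compound for about 90 hours before reading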
[4] = biological target: Heat shock protein HSP 90-alpha (Homo sapiens, UniProt P07900); format: functional, organism-based
[5] = cells
[6] = biological target: T1, Heat shock factor protein 1 (Mus musculus, UniProt P38532); assay: inhibition of MG132-induced HSE-luciferase signal, confirmation, cell-based, NIH3T3, luminescence, dose retest (AID 2382); format: functional;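 also: NIH3T3 fibroblasts with HSF1-driven luciferase reporter stressed by proteasome inhibitor MG132; luminescence from HSF1-driven luciferase expression after 8 hours of MG132 stress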
T1 sequence (P38532 whole entry): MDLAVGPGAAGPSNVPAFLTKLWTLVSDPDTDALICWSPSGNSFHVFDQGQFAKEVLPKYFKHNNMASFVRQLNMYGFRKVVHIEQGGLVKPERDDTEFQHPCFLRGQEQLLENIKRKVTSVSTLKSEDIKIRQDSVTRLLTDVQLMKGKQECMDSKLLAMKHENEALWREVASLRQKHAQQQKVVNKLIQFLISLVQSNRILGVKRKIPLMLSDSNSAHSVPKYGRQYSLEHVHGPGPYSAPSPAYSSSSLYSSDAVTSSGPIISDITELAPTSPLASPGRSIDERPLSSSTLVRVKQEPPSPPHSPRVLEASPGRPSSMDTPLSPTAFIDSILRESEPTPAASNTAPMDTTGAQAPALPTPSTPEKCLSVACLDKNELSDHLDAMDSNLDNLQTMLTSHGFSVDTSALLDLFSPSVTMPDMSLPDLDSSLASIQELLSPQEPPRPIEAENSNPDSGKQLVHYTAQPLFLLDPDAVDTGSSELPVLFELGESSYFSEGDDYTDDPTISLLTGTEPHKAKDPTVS

[7] = biological target: T2, Estrogen receptor (Homo sapiens, UniProt P03372);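 also: potency for inhibiting coactivator peptide recruitment to the receptor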
T2 sequence (P03372 whole entry): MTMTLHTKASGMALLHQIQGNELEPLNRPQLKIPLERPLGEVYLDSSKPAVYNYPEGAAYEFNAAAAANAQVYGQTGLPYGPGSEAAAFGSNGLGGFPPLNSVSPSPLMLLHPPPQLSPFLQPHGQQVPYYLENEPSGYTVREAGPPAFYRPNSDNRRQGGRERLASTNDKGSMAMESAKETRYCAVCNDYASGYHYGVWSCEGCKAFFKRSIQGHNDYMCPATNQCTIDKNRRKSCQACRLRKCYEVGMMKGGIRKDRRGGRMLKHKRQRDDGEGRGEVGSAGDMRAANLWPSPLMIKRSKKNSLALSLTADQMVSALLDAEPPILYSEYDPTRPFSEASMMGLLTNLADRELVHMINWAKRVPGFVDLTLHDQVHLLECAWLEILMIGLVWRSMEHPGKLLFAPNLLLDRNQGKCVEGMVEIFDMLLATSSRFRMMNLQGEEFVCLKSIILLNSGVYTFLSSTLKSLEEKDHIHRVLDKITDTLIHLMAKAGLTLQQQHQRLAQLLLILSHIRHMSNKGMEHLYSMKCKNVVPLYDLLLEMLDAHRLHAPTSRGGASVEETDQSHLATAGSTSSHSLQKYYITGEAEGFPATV

[8] = biological target: Estrogen receptor beta (Homo sapiens, UniProt Q92731);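 also: recombinant ER-beta bound to coactivator SRC1 peptide in presence of estradiol agonist; inhibitors block coactivator peptide binding and lower the FRET signal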
Chain of Estrogen receptor beta (Q92731 whole entry): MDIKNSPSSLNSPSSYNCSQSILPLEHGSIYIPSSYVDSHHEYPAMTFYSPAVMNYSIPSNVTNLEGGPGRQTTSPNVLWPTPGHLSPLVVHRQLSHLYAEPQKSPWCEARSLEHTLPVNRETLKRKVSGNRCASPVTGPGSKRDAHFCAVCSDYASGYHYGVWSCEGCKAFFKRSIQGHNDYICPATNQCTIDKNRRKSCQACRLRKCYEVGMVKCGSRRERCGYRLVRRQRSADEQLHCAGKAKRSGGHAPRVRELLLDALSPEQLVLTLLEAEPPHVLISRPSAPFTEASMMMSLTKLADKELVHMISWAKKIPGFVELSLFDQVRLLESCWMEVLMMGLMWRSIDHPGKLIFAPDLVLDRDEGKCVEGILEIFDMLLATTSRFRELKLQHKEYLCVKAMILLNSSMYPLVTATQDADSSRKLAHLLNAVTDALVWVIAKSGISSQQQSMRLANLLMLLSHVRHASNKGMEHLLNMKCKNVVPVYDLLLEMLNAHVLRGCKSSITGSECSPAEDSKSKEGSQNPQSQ

[9] = biological target: Cytochrome P450 3A4 (Homo sapiens, UniProt P08684); details: Potency;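 also: confirmatory qHTS run detecting inhibitors and substrates of CYP3A4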
Chain of Cytochrome P450 3A4 (P08684 whole entry): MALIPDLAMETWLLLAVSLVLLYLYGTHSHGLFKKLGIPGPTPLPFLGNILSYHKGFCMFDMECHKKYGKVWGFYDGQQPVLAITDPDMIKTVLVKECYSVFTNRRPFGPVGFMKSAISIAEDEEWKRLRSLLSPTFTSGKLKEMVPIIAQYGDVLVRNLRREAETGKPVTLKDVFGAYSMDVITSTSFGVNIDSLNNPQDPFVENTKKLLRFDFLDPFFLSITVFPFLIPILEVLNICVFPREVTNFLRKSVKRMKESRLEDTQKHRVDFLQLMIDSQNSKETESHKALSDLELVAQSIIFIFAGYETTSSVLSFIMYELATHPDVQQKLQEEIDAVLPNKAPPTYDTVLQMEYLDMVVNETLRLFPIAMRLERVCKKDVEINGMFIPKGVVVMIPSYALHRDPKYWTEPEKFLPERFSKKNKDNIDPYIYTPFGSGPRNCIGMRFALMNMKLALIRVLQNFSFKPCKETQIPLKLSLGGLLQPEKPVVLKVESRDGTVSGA

[10] = A Cell Based Secondary Assay To Explore Cytotoxicity of Compounds that Sensitize Mycobacterium Tuberculosis to Beta-Lactam Antibiotics.; format: functional
[11] = biological target: Melanin-concentrating hormone receptor 1 (Homo sapiens, UniProt Q99705); assay: Late-stage fluorescence-based counterscreen for antagonists of the G-protein coupled receptor 7 (GPR7): cell-based dose response assay to identify antagonists of the melanin-concentrating hormone receptor 1 (MCHR1). [Related pubchem assays (depositor defined):AID1861, AID1880, AID1952, AID2148, AID2251, AID2257, AID485339]; format: functional;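 also: stimulated with 30 nM MCH peptide agonist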
Chain of Melanin-concentrating hormone receptor 1 (Q99705 whole entry): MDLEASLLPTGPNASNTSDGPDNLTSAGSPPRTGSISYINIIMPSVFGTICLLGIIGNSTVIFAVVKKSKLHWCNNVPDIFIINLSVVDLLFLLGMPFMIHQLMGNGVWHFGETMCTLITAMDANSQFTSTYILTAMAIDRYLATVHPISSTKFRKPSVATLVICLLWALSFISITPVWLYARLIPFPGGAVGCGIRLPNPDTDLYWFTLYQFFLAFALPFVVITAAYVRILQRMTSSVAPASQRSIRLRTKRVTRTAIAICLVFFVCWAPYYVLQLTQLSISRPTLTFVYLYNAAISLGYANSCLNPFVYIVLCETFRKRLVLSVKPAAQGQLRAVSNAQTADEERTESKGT

[12] = inhibitors of Vif binding to APOBEC3G peptide, primary screen, biochemical, TR-FRET, GST-Vif 1-94, biotin-A3G peptide, dose response retest (AID 1117319); format: functional;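 also: TR-FRET signal of purified GST-Vif binding a biotinylated A3G peptide; inhibitors lower the FRET signal by blocking Vif and A3G binding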
[13] = inhibitors of firefly luciferase expression or activity, dose response, H4 neuroglioma cells, luminescence (AID 1990); format: functional, cell-based
[14] = luciferase reporter signal reduction – luminescence, H4-C neuroglioblastoma cells, dose response (AID 2458); format: functional, cell-based;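 also: H4 neuroglioblastoma cells stably carrying a luciferase reporter gene fusion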
[15] = system: BJ; assay: cytotoxicity toward BJ-TERT fibroblasts, dose response, cell-based, RAS-independent, luminescence (AID 1933); format: functional; details: Homo sapiens
[16] = cells; format: functional, cell-based
[17] = Luminescence Cell-Based Dose Response HTS to Identify Inhibitors of 5'UTR Stem-Loop Driven Prion Protein mRNA Translation in H4 Neuroglioblastoma Cells. [Related pubchem assays: 1827 (Project Summary), 1813 (Primary HTS)]; format: functional
[18] = inhibitors of SNCA 5'UTR-driven reporter translation, confirmation, H4 neuroglioma cells, luminescence (AID 1988); format: functional, cell-based
[19] = system: BJ; assay: cells; format: functional, cell-based; details: Homo sapiens
[20] = system: BJ; assay: cytotoxicity toward BJ-TERT-LT-ST fibroblasts, dose response, cell-based, RAS-independent, luminescence (AID 1935); format: functional; details: Homo sapiens;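 also: BJ fibroblasts immortalized with TERT plus LT and ST oncogenes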
[21] = cytotoxicity toward DRD oncogenic fibroblasts, dose response, cell-based, non-viral oncogenic, luminescence (AID 1934); format: functional; details: Homo sapiens
[22] = inhibitors of SNCA 5'UTR-driven translation, confirmation, luminescence, H4 neuroglioblastoma cells, dose confirmation (AID 2454); format: functional, cell-based;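 also: H4 neuroglioblastoma cells carrying an alpha-synuclein 5'UTR luciferase reporter; potency for inhibition of the luciferase signal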
[23] = biological target: T3, Neuropeptide Y receptor type 1 (Homo sapiens, UniProt P25929); format: functional;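 also: HEK293 cells with a CNG channel challenged with NPY then isoproterenol; potency as antagonist that reverses NPY suppression of cAMP signal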
T3 sequence (P25929 whole entry): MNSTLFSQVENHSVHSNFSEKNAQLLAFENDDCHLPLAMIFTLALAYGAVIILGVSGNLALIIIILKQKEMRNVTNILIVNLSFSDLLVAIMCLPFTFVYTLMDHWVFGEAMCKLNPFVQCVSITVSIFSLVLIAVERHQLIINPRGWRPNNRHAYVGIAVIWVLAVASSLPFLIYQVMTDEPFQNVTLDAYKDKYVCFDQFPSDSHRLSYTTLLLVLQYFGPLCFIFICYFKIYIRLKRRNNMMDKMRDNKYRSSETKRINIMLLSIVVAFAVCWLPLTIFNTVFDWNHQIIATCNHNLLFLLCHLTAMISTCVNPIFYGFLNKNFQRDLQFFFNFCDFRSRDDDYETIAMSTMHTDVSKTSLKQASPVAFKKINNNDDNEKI

[24] = biological target: T4, Neuropeptide Y receptor type 2 (Homo sapiens, UniProt P49146); format: functional, cell-based;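 also: HEK293 cells expressing the receptor and a CNG channel; stimulus was NPY near EC95 followed by isoproterenol to raise cAMP; antagonist potency measured as restoring cAMP signal that NPY suppresses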
T4 sequence (P49146 whole entry): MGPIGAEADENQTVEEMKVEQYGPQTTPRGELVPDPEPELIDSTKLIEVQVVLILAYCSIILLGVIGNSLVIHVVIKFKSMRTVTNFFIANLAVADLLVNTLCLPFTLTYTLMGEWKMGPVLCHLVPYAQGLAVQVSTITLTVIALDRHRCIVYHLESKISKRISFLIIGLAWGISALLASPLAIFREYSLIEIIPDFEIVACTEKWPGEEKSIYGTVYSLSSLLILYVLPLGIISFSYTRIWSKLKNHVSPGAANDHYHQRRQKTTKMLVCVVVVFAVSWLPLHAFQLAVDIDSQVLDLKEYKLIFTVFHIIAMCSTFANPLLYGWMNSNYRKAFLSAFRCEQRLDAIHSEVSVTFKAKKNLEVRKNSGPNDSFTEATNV

[25] = biological target: Cytochrome P450 2C19 (Homo sapiens, UniProt P33261); assay: Cytochrome panel assay with activity outcomes. Panel member name: p450-cyp2c19 Compounds with AC50 equal or less than 10 uM are considered active; format: functional
Chain of Cytochrome P450 2C19 (P33261 whole entry): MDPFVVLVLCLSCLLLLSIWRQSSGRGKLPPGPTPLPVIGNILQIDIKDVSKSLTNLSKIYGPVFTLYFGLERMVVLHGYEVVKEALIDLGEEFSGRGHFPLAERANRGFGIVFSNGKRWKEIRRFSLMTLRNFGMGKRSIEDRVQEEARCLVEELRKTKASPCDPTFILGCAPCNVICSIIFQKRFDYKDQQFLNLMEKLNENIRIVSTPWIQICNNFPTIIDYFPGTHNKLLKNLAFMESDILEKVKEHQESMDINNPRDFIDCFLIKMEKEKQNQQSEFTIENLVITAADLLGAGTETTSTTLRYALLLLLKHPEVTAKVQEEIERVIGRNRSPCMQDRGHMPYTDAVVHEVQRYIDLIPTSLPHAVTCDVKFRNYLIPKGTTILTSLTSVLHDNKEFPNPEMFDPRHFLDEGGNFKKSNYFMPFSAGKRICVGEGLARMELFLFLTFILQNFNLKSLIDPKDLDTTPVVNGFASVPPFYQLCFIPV

[26] = biological target: Cytochrome P450 2C9 (Homo sapiens, UniProt P11712)
Chain of Cytochrome P450 2C9 (P11712 whole entry): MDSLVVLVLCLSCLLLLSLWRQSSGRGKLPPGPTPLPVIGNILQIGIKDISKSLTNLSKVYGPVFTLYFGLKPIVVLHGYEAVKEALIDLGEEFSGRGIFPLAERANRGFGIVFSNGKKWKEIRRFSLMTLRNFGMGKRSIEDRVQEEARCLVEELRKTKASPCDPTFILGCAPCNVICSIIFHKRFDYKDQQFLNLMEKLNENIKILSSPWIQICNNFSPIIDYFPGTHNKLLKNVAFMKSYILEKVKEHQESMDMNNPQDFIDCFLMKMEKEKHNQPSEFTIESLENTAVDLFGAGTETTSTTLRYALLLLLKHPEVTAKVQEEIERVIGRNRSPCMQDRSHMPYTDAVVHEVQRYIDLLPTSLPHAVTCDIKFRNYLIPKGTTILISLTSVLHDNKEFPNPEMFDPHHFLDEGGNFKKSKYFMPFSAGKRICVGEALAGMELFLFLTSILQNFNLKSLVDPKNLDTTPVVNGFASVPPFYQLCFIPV

[27] = biological target: T5, Protein Tat (Human immunodeficiency virus type 1 group M subtype B (isolate HXB2)(HIV-1), UniProt P04608); format: functional;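 also: tat binding to TAR RNA read out by fluorescence polarization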
T5 sequence (P04608 whole entry): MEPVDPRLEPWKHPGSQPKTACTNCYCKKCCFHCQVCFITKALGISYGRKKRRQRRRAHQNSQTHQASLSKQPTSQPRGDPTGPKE

[28] = inhibitors of HIV Env-driven cell fusion, dose response, cherry-pick (AID 652057); format: functional, cell-based
[29] = P. falciparum 3D7-ScDHODH growth inhibitors, dose response, SYBR Green, dry powder samples (AID 1159570); format: functional, cell-based;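 also: parasite growth measured after 72 hours of compound exposure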
[30] = HepG2 cell cytotoxicity, dose response, cytotoxicity control, plate reader, dry powder samples (AID 1159569); format: functional, cell-based;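 also: inhibitor potency with signal falling toward the positive control level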
[31] = P. falciparum Dd2 growth inhibitors, dose response, SYBR Green, cherry-picked samples (AID 1159567); format: functional, cell-based
[32] = P. falciparum Dd2 growth inhibitors, dose response, SYBR Green, dry powder samples (AID 1159566); format: functional, cell-based;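 also: potency for growth inhibition with lower SYBR green DNA signal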
[33] = P. falciparum ATP4 D1247Y mutant growth inhibitors, dose response, NITD609-resistant line, SYBR Green, dry powder (AID 1159571); format: functional, cell-based;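 also: parasites synchronized at ring stage by sorbitol before testing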
[34] = biological target: Luciferin 4-monooxygenase (Photinus pyralis, UniProt P08659); assay: firefly luciferase enzyme inhibitors, dose response, biochemical, luminescence (AID 1891)
Chain of Luciferin 4-monooxygenase (P08659 whole entry): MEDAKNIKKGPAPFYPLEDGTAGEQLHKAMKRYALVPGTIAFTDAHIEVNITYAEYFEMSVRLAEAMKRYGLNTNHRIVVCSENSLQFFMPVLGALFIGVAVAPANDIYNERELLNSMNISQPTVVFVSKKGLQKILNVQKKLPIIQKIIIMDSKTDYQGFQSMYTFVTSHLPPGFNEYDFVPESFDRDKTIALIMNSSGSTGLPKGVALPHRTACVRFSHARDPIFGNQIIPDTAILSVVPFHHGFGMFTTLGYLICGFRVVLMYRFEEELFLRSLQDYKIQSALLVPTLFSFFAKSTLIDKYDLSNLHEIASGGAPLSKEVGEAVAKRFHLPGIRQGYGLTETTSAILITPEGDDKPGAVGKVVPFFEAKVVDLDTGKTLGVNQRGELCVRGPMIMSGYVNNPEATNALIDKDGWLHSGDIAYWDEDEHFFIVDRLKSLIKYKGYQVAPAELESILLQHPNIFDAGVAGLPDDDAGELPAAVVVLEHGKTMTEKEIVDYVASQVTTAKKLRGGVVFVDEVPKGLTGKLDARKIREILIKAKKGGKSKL

[35] = Luminescence Cell-Based Dose Confirmation HTS to Identify Inhibitors of Platelet Dense Granule Release. [Related pubchem assays: 1663 (Primary HTS), 1678 (Summary of Project)]; format: functional
[36] = microbe, parasite or virus in culture; format: functional; details: Mycobacterium tuberculosis
[37] = biological target: Induced myeloid leukemia cell differentiation protein Mcl-1 (Homo sapiens, UniProt Q07820); assay: MCL1-BIM BH3 interaction inhibitors, dose response, biochemical, fluorescence polarization, BIM-BH3 peptide, 1536-well (AID 2217)
Chain of Induced myeloid leukemia cell differentiation protein Mcl-1 (Q07820 whole entry): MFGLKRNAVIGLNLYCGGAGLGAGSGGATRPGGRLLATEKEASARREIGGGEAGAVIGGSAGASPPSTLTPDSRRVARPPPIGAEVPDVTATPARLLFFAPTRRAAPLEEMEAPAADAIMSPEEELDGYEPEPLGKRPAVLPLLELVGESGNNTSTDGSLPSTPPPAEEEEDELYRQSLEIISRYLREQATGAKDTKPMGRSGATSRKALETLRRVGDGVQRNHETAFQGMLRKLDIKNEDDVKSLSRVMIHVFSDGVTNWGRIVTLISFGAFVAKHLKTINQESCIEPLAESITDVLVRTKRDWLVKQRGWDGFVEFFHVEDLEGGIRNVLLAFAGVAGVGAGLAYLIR

[38] = biological target: Bcl-2-like protein 1 (Homo sapiens, UniProt Q07817); assay: BCL-XL inhibitors, dose response, selectivity assay for MCL1 inhibitor project, biochemical, fluorescence polarization, 1536-well (AID 2218)
Chain of Bcl-2-like protein 1 (Q07817 whole entry): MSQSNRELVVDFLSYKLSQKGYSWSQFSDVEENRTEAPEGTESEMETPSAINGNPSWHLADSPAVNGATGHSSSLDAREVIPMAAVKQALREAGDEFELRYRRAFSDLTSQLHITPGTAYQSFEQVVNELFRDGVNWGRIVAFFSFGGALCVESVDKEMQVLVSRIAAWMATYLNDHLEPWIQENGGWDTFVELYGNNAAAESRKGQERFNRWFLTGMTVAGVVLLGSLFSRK

Chain of Neurotensin receptor type 1 (P30989 whole entry): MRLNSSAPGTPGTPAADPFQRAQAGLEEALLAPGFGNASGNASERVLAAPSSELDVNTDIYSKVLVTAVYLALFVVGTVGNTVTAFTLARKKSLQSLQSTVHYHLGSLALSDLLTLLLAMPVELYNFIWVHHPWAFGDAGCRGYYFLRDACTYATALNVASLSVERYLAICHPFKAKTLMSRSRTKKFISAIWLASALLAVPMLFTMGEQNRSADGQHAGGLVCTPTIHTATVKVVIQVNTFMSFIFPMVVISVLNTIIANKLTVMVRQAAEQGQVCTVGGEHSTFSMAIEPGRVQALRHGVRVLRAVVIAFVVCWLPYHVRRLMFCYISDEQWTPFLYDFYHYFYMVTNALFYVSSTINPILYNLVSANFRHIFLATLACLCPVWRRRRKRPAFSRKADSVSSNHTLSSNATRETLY

CC(C)c1ccc(Nc2nnc(SC3CCOC3=O)s2)cc1 (stereo not drawn)
EC50 [1]: 7.37 µM (active)

Cc1sc(NC(=O)c2ccco2)c(C(c2cccnc2)N2CCC(C)CC2)c1C (stereo not drawn)
EC50 [2]: < 0.1 µM (active) | EC50 [3]: 9.92 µM (active) | AC50 [4]: 4.94 µM (active) | EC50 [5]: 0.182 µM (active)

COc1ccc(NC(=O)c2ccco2)cc1N
EC50 [6]: > 195 µM (not active) | IC50 [7]: 36.1 µM (not active) | IC50 [8]: 10.7 µM (active)

CCCCCCC1=Cc2cc(OC)c(OC)cc2C(C(C(C)=O)C(=O)OC)O1 (stereo not drawn)
AC50 [9]: 3.16 µM (inconclusive)

O=C(COc1ncnc2cc([N+](=O)[O-])ccc12)NCCc1ccc(Cl)cc1
EC50 [2]: < 0.1 µM (active) | EC50 [3]: > 30 µM (not active) | EC50 [5]: 0.377 µM (active)

O=C(CCC(=O)Nc1nnc(C2CCCCC2)s1)NCC1CCCO1 (stereo not drawn)
IC50 [7]: > 50 µM (not active) | IC50 [8]: > 50 µM (not active)

CCc1ccc2oc(-c3cc(N)cc(C)c3O)nc2c1
CC50 [10]: > 40 µM (active)

CCOc1ccc(Oc2c(Br)cnn(-c3ccc(C(C)C)cc3)c2=O)cc1
IC50 [11]: 3.1 µM (active)

C=C(C)COc1ccc2c(C)c(C)c(=O)oc2c1OCC(=C)C
CC50 [10]: > 40 µM (active)

Cc1ccc(C2SCC(=O)N2Cc2cn3ccsc3n2)o1 (stereo not drawn)
IC50 [12]: > 100 µM (active)

Brc1ccc(C2=Nn3c(nnc3-c3[nH]nc4c3CCC4)SC2)cc1
EC50 [13]: 11.9 µM (active) | EC50 [14]: > 3.8 µM (not active) | EC50 [15]: 2.33 µM (active) | EC50 [16]: 2.12 µM (active) | EC50 [17]: > 120 µM (not active) | EC50 [18]: < 0.1 µM (active) | EC50 [19]: 43.5 µM (active) | EC50 [20]: 138 µM (inconclusive) | EC50 [21]: 1.65 µM (active) | EC50 [22]: 1.97 µM (active)

COC(=O)c1c(CSc2cccc(C)c2)noc1C(=O)NCc1ccco1
CC50 [10]: > 40 µM (active)

CCc1cc2c(CN3CCN(CC)CC3)cc(=O)oc2cc1O
IC50 [12]: > 100 µM (active)

O=C(O)CSc1nnc(-c2ccc3c(c2)OCO3)o1
IC50 [23]: > 35 µM (not active) | IC50 [24]: > 35 µM (not active)

O=C(CN(C(=O)c1ccc(Cl)cc1)N1C(=O)C2CCCCC2C1=O)c1ccc(Cl)cc1 (stereo not drawn)
EC50 [1]: 18 µM (active)

C(#CC1C=CC2OC(c3ccccc3)OCC2O1)c1ccccc1 (stereo not drawn)
AC50 [9]: 2.51 µM (inconclusive)

COc1cccc(/C=C/C(=O)c2cccc([N+](=O)[O-])c2)c1OC
EC50 [1]: 9.39 µM (active)

COc1cc(CN2CCCCC2)ccc1OCc1ccccc1
EC50 [2]: < 0.1 µM (active) | EC50 [3]: > 60 µM (not active) | EC50 [5]: 0.67 µM (active)

COc1ccc(/C=C(/NC(C)=O)C(=O)O)cc1
AC50 [25]: 11.2 µM (inconclusive) | IC50 [12]: > 100 µM (active) | AC50 [26]: 10 µM (inconclusive)

O=C1NC(=O)C(=CN2CCc3ccccc32)C(=O)N1
IC50 [27]: > 100 µM (active)

COC(=O)[C@@]1(C)C=C[C@@H](Cc2ccccc2)N1C(=O)c1ccccc1
AC50 [9]: 20 µM (inconclusive)

C[C@@H]1CN([C@H](C)CO)S(=O)(=O)c2ccc(-c3ccncc3)cc2O[C@@H]1CN(C)Cc1ccc(Oc2ccccc2)cc1
AC50 [28]: 22.4 µM (active) | AC50 [29]: 0.589 µM (active) | AC50 [30]: > 100 µM (inactive) | AC50 [31]: 1.16 µM (active) | AC50 [32]: 0.539 µM (active) | AC50 [33]: 0.616 µM (active)

Cc1nc(N2CCC(C)CC2)c2oc3ccccc3c2n1
IC50 [23]: 7.23 µM (active) | EC50 [34]: 109 µM (active) | EC50 [35]: > 112 µM (not active) | CC50 [36]: > 40 µM (active) | IC50 [24]: 5.77 µM (active)

O=C(COC(=O)c1ccc(-c2ccccc2)cc1)Nc1ccccc1-c1ccccc1
IC50 [23]: 5.72 µM (active) | IC50 [24]: 6.97 µM (active)

C[C@H](NS(=O)(=O)OCC(Cl)(Cl)Cl)C1CC1c1ccccc1 (stereo partly drawn)
IC50 [37]: 65.4 µM (not active) | IC50 [38]: > 109 µM (not active)
